According to patent publication US12129237B2, “Substituted diaminocarboxamide and diaminocarbonitrile pyrimidines, compositions thereof, and methods of treatment therewith” (SIGNAL PHARMACEUTICALS, LLC, priority 2011, dated 2024):

Target: T1, JNK1 (Homo sapiens, UniProt P45983)
T1 construct: purchased Carna Biosciences
Assay: JNK1 biochemical assays (one or more of: time resolved fluorescence, Z'-LYTE Cascade, radioactive)
Conditions: one or more of the JNK1 biochemical assays; read-out: Act. Level (JNK1 IC50 activity level)

T1 sequence (P45983 whole entry): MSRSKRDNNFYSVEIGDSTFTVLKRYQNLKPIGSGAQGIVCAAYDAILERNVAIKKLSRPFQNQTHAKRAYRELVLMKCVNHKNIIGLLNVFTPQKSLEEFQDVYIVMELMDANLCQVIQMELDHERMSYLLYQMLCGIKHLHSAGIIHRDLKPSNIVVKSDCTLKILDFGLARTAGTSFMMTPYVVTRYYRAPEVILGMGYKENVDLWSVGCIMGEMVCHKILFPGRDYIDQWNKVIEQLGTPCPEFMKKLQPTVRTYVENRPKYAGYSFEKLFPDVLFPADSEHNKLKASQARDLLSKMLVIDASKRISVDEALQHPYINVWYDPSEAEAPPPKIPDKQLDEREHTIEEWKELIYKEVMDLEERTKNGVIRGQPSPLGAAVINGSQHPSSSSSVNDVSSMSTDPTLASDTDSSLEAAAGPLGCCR

IC50 [nM] | Structure (SMILES)
< 200 | C[C@@H]1CC[C@@H](Nc2nc(N[C@@H](C)C(C)(C)C)ncc2C(N)=O)C[C@H]1O [Example 469, 2-((S)-3,3-dimethylbutan-2-ylamino)-4-((1R,3R,4R)-3-hydroxy-4-methylcyclohexylamino)pyrimidine-5-carboxamide]
< 200 | CC(C)[C@@H](C)Nc1ncc(C(N)=O)c(N[C@@H]2CC[C@@H](C)[C@H](O)C2)n1 [Example 470, 4-((1R,3R,4R)-3-hydroxy-4-methylcyclohexylamino)-2-((R)-3-methylbutan-2-ylamino)pyrimidine-5-carboxamide]
< 200 | CC(C)[C@H](C)Nc1ncc(C(N)=O)c(N[C@@H]2CC[C@@H](C)[C@H](O)C2)n1 [Example 471, 4-((1R,3R,4R)-3-hydroxy-4-methylcyclohexylamino)-2-((S)-3-methylbutan-2-ylamino)pyrimidine-5-carboxamide]
< 200 | C[C@@H]1CC[C@@H](Nc2nc(NCC3CC3)ncc2C(N)=O)C[C@H]1O [Example 472, 2-(cyclopropylmethylamino)-4-((1R,3R,4R)-3-hydroxy-4-methylcyclohexylamino)pyrimidine-5-carboxamide]
< 200 | CO[C@H]1CC[C@H](Nc2ncc(C(N)=O)c(NC3(C)CCCC3)n2)CC1 [Example 473]
< 200 | C[C@@H]1CC[C@@H](Nc2nc(NC3(C4CC4)CC3)ncc2C(N)=O)C[C@H]1O [Example 474, 2-(bi(cycloprop)ylamino)-4-((1R,3R,4R)-3-hydroxy-4-methylcyclohexylamino)pyrimidine-5-carboxamide]
< 200 | C[C@@H]1CC[C@@H](Nc2nc(NC3(C)CCCC3)ncc2C(N)=O)C[C@H]1O [Example 475, 4-((1R,3R,4R)-3-hydroxy-4-methylcyclohexylamino)-2-(1-methylcyclopentylamino)pyrimidine-5-carboxamide]
< 200 | CCO[C@H]1CC[C@H](Nc2ncc(C(N)=O)c(NC3C4CC3C4)n2)CC1 (some centres unmarked) [Example 476, 4-(bicyclo[1.1.1]pentan-2-ylamino)-2-((1r,4r)-4-ethoxycyclohexylamino)pyrimidine-5-carboxamide]
< 200 | NC(=O)c1cnc(N[C@H]2CC[C@H](O)CC2)nc1NC12CCC(C1)C2 [Example 477, 4-(bicyclo[2.1.1]hexan-1-ylamino)-2-((1r,4r)-4-hydroxycyclohexylamino)pyrimidine-5-carboxamide]
< 200 | CCO[C@H]1CC[C@H](Nc2ncc(C(N)=O)c(NC3(CC)CCCCC3)n2)CC1 [Example 478, 2-((1r,4r)-4-ethoxycyclohexylamino)-4-(1-ethylcyclohexylamino)pyrimidine-5-carboxamide]
< 200 | CC(C)(Nc1nc(NC23CCC(O)(CC2)CC3)ncc1C(N)=O)C1CC1 [Example 479, 4-(2-cyclopropylpropan-2-ylamino)-2-(4-hydroxybicyclo[2.2.2]octan-1-ylamino)pyrimidine-5-carboxamide]
< 200 | CN(C)C(=O)[C@H]1CC[C@H](Nc2ncc(C(N)=O)c(NC(C)(C)C3CC3)n2)CC1 [Example 480, 4-(2-cyclopropylpropan-2-ylamino)-2-((1r,4r)-4-(dimethylcarbamoyl)cyclohexylamino)pyrimidine-5-carboxamide]
< 200 | CC(C)(Nc1nc(N[C@H]2CC[C@H](OC(F)F)CC2)ncc1C(N)=O)C1CC1 [Example 481, 4-(2-cyclopropylpropan-2-ylamino)-2-((1r,4r)-4-(difluoromethoxy)cyclohexylamino)pyrimidine-5-carboxamide]
< 200 | CC(C)(Nc1nc(N[C@H]2CC[C@H](OCC(F)(F)F)CC2)ncc1C(N)=O)C1CC1 [Example 482, 4-(2-cyclopropylpropan-2-ylamino)-2-((1r,4r)-4-(2,2,2-trifluoroethoxy)cyclohexylamino)pyrimidine-5-carboxamide]
< 200 | CC(C)(Nc1nc(N[C@H]2CC[C@H](OC3CC3)CC2)ncc1C(N)=O)C1CC1 [Example 483, 2-((1r,4r)-4-cyclopropoxycyclohexylamino)-4-(2-cyclopropylpropan-2-ylamino)pyrimidine-5-carboxamide]
< 200 | NC(=O)c1cnc(N[C@H]2CC[C@H](OC3CC3)CC2)nc1NC1C2CC1C2 (some centres unmarked) [Example 486, 4-(bicyclo[1.1.1]pentan-2-ylamino)-2-((1r,4r)-4-cyclopropoxycyclohexylamino)pyrimidine-5-carboxamide]
< 200 | NC(=O)c1cnc(N[C@H]2CC[C@H](OC3CC3)CC2)nc1NC12CCC(C1)C2 [Example 487, 4-(bicyclo[2.1.1]hexan-1-ylamino)-2-((1r,4r)-4-cyclopropoxycyclohexylamino)pyrimidine-5-carboxamide]
< 200 | CCO[C@H]1CC[C@H](Nc2ncc(C(N)=O)c(NC3(C)CCCC3)n2)CC1 [Example 488, 2-((1r,4r)-4-ethoxycyclohexylamino)-4-(1-methylcyclopentylamino)pyrimidine-5-carboxamide]

The next lines start with the compound.

Structure (SMILES) | IC50 [nM]
NC(=O)c1cnc(N[C@H]2CCCOC2)nc1NC1CCC1 [Example 448, (S)-4-(cyclobutylamino)-2-(tetrahydro-2H-pyran-3-ylamino)pyrimidine-5-carboxamide] | < 200
C[C@@H](Nc1nc(NC23CCC(O)(CC2)C3)ncc1C(N)=O)C1CC1 [Example 450, (R)-4-(1-cyclopropylethylamino)-2-(4-hydroxybicyclo[2.2.1]heptan-1-ylamino)pyrimidine-5-carboxamide] | < 200
CC1(Nc2nc(NC34CCC(O)(CC3)C4)ncc2C(N)=O)CCC1 [Example 451, 2-(4-hydroxybicyclo[2.2.1]heptan-1-ylamino)-4-(1-methylcyclobutylamino)pyrimidine-5-carboxamide] | < 200
CCC(C)(C)Nc1nc(NC23CCC(O)(CC2)C3)ncc1C(N)=O [Example 452, 2-(4-hydroxybicyclo[2.2.1]heptan-1-ylamino)-4-(tert-pentylamino)pyrimidine-5-carboxamide] | < 200
NC(=O)c1cnc(N[C@H]2CC[C@H](O)CC2)nc1NC1C2CC1C2 (some centres unmarked) [Example 453, 4-(bicyclo[1.1.1]pentan-2-ylamino)-2-((1r,4r)-4-hydroxycyclohexylamino)pyrimidine-5-carboxamide] | < 200
CCC1(Nc2nc(N[C@H]3CC[C@H](OC)CC3)ncc2C(N)=O)CCCC1 [Example 454, 4-(1-ethylcyclopentylamino)-2-((1r,4r)-4-methoxycyclohexylamino)pyrimidine-5-carboxamide] | < 200
CCC1(Nc2nc(N[C@H]3CC[C@H](O)CC3)ncc2C(N)=O)CCCC1 [Example 455, 4-(1-ethylcyclopentylamino)-2-((1r,4r)-4-hydroxycyclohexylamino)pyrimidine-5-carboxamide] | < 200
CC(C)(Nc1nc(N[C@H]2CCC[C@H](O)C2)ncc1C(N)=O)C1CC1 [Example 456, 4-(2-cyclopropylpropan-2-ylamino)-2-((1S,3S)-3-hydroxycyclohexylamino)pyrimidine-5-carboxamide] | < 200
CC(C)(Nc1nc(N[C@H]2CCC[C@@H](O)C2)ncc1C(N)=O)C1CC1 [Example 457, 4-(2-cyclopropylpropan-2-ylamino)-2-((1S,3R)-3-hydroxycyclohexylamino)pyrimidine-5-carboxamide] | < 200
NC(=O)c1cnc(N[C@]23CC[C@@](O)(CC2)C3)nc1NC12CC(C1)C2 [Example 458, 4-(bicyclo[1.1.1]pentan-1-ylamino)-2-((1r,4r)-4-hydroxybicyclo[2.2.1]heptan-1-ylamino)pyrimidine-5-carboxamide] | < 200
C[C@@H]1CC[C@@H](Nc2nc(N[C@H](C)C3CCC3)ncc2C(N)=O)C[C@H]1O [Example 459, 2-((R)-1-cyclobutylethylamino)-4-((1R,3R,4R)-3-hydroxy-4-methylcyclohexylamino)pyrimidine-5-carboxamide] | < 200
C[C@H](Nc1ncc(C(N)=O)c(N[C@@H]2CC[C@@H](C)[C@H](O)C2)n1)C1CCC1 [Example 460, 2-((S)-1-cyclobutylethylamino)-4-((1R,3R,4R)-3-hydroxy-4-methylcyclohexylamino)pyrimidine-5-carboxamide] | < 200
C[C@@H]1CC[C@@H](Nc2nc(N[C@H](C)C(C)(C)C)ncc2C(N)=O)C[C@H]1O [Example 461, 2-((R)-3,3-dimethylbutan-2-ylamino)-4-((1R,3R,4R)-3-hydroxy-4-methylcyclohexylamino)pyrimidine-5-carboxamide] | < 200
CCO[C@H]1CC[C@H](Nc2ncc(C(N)=O)c(NC34CCC(C3)C4)n2)CC1 [Example 462, 4-(bicyclo[2.1.1]hexan-1-ylamino)-2-((1r,4r)-4-ethoxycyclohexylamino)pyrimidine-5-carboxamide] | < 200
CCC1(Nc2nc(N[C@H]3CC[C@H](OC4CC4)CC3)ncc2C(N)=O)CCCC1 [Example 463, 2-((1r,4r)-4-cyclopropoxycyclohexylamino)-4-(1-ethylcyclopentylamino)pyrimidine-5-carboxamide] | < 200
CCO[C@H]1CC[C@H](Nc2ncc(C(N)=O)c(NC3(CC)CCCC3)n2)CC1 [Example 464, 2-((1r,4r)-4-ethoxycyclohexylamino)-4-(1-ethylcyclopentylamino)pyrimidine-5-carboxamide] | < 200
CC(C)(Nc1nc(N[C@@H]2CCC[C@@H](O)C2)ncc1C(N)=O)C1CC1 [Example 465, 4-(2-cyclopropylpropan-2-ylamino)-2-((1R,3R)-3-hydroxycyclohexylamino)pyrimidine-5-carboxamide] | < 200
CC(C)(Nc1nc(N[C@@H]2CCC[C@H](O)C2)ncc1C(N)=O)C1CC1 [Example 466, 4-(2-cyclopropylpropan-2-ylamino)-2-((1R,3S)-3-hydroxycyclohexylamino)pyrimidine-5-carboxamide] | < 200
CC(C)(Nc1nc(NC2CCOCC2)ncc1C(N)=O)C1CC1 [Example 467, 4-(2-cyclopropylpropan-2-ylamino)-2-(tetrahydro-2H-pyran-4-ylamino)pyrimidine-5-carboxamide] | < 200
CC(C)(Nc1nc(N[C@H]2CCCOC2)ncc1C(N)=O)C1CC1 [Example 468, (S)-4-(2-cyclopropylpropan-2-ylamino)-2-(tetrahydro-2H-pyran-3-ylamino)pyrimidine-5-carboxamide] | < 200
